Experimental data taken from the NIST ThermoML archive (doi:10.1016/j.jct.2012.02.007).
± gives the expanded uncertainty stated by the source.

How the values were obtained:
[1] = mn = molality of the nth substance listed, in mol/kg; details: 101.3 kPa, Liquid; for speed of sound: Sing-around technique in a fixed-path interferometer; for mass density: Vibrating tube method
[2] = osmotic coefficient (dimensionless); mn = molality of the nth substance listed, in mol/kg; details: 323.15 K, Liquid, Vapor Pressure Osmometer

## CCCCn1cc[n+](C)c1.N#CN=C=[N-] [1-butyl-3-methylimidazolium dicyanamide] + CCC(C)O
[1]; 293.15 K, m1 = 0.0516
  speed of sound: 1234.5 ± 0.9 m/s
  mass density: 809.04 ± 0.12 kg/m3
[1]; 293.15 K, m1 = 0.1009
  speed of sound: 1238.1 ± 0.9 m/s
  mass density: 811.17 ± 0.12 kg/m3
[1]; 293.15 K, m1 = 0.1501
  speed of sound: 1241.8 ± 0.9 m/s
  mass density: 813.3 ± 0.12 kg/m3
[1]; 293.15 K, m1 = 0.2081
  speed of sound: 1246 ± 0.9 m/s
  mass density: 815.7 ± 0.12 kg/m3
[1]; 293.15 K, m1 = 0.2579
  speed of sound: 1249.3 ± 0.9 m/s
  mass density: 817.76 ± 0.12 kg/m3
[1]; 293.15 K, m1 = 0.5079
  speed of sound: 1265.7 ± 0.9 m/s
  mass density: 827.23 ± 0.12 kg/m3
[1]; 293.15 K, m1 = 0.7631
  speed of sound: 1281.1 ± 1 m/s
  mass density: 836.25 ± 0.13 kg/m3
[1]; 293.15 K, m1 = 1.016
  speed of sound: 1295.3 ± 1 m/s
  mass density: 844.37 ± 0.13 kg/m3
[1]; 293.15 K, m1 = 1.267
  speed of sound: 1308.6 ± 1 m/s
  mass density: 851.96 ± 0.14 kg/m3
[1]; 293.15 K, m1 = 1.517
  speed of sound: 1321.1 ± 1.1 m/s
  mass density: 858.95 ± 0.14 kg/m3
[1]; 293.15 K, m1 = 1.782
  speed of sound: 1333.7 ± 1.1 m/s
  mass density: 865.94 ± 0.15 kg/m3
[1]; 293.15 K, m1 = 1.95
  speed of sound: 1341.3 ± 1.1 m/s
  mass density: 870.16 ± 0.16 kg/m3
[1]; 293.15 K, m1 = 2.523
  speed of sound: 1365.1 ± 1.2 m/s
  mass density: 883.17 ± 0.18 kg/m3
[1]; 293.15 K, m1 = 3.56
  speed of sound: 1401.6 ± 1.3 m/s
  mass density: 902.51 ± 0.22 kg/m3
[1]; 308.15 K, m1 = 0.0516
  speed of sound: 1180.7 ± 0.9 m/s
  mass density: 796.59 ± 0.12 kg/m3
[1]; 308.15 K, m1 = 0.1009
  speed of sound: 1184.9 ± 0.9 m/s
  mass density: 798.81 ± 0.12 kg/m3
[1]; 308.15 K, m1 = 0.1501
  speed of sound: 1188.8 ± 0.9 m/s
  mass density: 801.01 ± 0.12 kg/m3
[1]; 308.15 K, m1 = 0.2081
  speed of sound: 1193.3 ± 0.9 m/s
  mass density: 803.5 ± 0.12 kg/m3
[1]; 308.15 K, m1 = 0.2579
  speed of sound: 1197.1 ± 0.9 m/s
  mass density: 805.61 ± 0.12 kg/m3
[1]; 308.15 K, m1 = 0.5079
  speed of sound: 1214.4 ± 0.9 m/s
  mass density: 815.35 ± 0.13 kg/m3
[1]; 308.15 K, m1 = 0.7631
  speed of sound: 1230.8 ± 0.9 m/s
  mass density: 824.57 ± 0.13 kg/m3
[1]; 308.15 K, m1 = 1.016
  speed of sound: 1245.9 ± 1 m/s
  mass density: 832.86 ± 0.14 kg/m3
[1]; 308.15 K, m1 = 1.267
  speed of sound: 1260 ± 1 m/s
  mass density: 840.59 ± 0.14 kg/m3
[1]; 308.15 K, m1 = 1.517
  speed of sound: 1273 ± 1.1 m/s
  mass density: 847.71 ± 0.15 kg/m3
[1]; 308.15 K, m1 = 1.782
  speed of sound: 1286.2 ± 1.1 m/s
  mass density: 854.81 ± 0.16 kg/m3
[1]; 308.15 K, m1 = 1.95
  speed of sound: 1294.2 ± 1.1 m/s
  mass density: 859.09 ± 0.16 kg/m3
[1]; 308.15 K, m1 = 2.523
  speed of sound: 1319.1 ± 1.2 m/s
  mass density: 872.28 ± 0.18 kg/m3
[1]; 308.15 K, m1 = 3.56
  speed of sound: 1356.4 ± 1.3 m/s
  mass density: 891.67 ± 0.22 kg/m3
[1]; 323.15 K, m1 = 0.0516
  speed of sound: 1125.7 ± 0.8 m/s
  mass density: 783.23 ± 0.13 kg/m3
[1]; 323.15 K, m1 = 0.1009
  speed of sound: 1130.4 ± 0.8 m/s
  mass density: 785.57 ± 0.13 kg/m3
[1]; 323.15 K, m1 = 0.1501
  speed of sound: 1134.6 ± 0.9 m/s
  mass density: 787.88 ± 0.13 kg/m3
[1]; 323.15 K, m1 = 0.2081
  speed of sound: 1139.5 ± 0.9 m/s
  mass density: 790.47 ± 0.13 kg/m3
[1]; 323.15 K, m1 = 0.2579
  speed of sound: 1143.6 ± 0.9 m/s
  mass density: 792.68 ± 0.13 kg/m3
[1]; 323.15 K, m1 = 0.5079
  speed of sound: 1162.3 ± 0.9 m/s
  mass density: 802.8 ± 0.1 kg/m3
[1]; 323.15 K, m1 = 0.7631
  speed of sound: 1179.8 ± 0.9 m/s
  mass density: 812.32 ± 0.13 kg/m3
[1]; 323.15 K, m1 = 1.016
  speed of sound: 1195.9 ± 1 m/s
  mass density: 820.86 ± 0.14 kg/m3
[1]; 323.15 K, m1 = 1.267
  speed of sound: 1210.9 ± 1 m/s
  mass density: 828.79 ± 0.14 kg/m3
[1]; 323.15 K, m1 = 1.517
  speed of sound: 1224.8 ± 1 m/s
  mass density: 836.09 ± 0.15 kg/m3
[1]; 323.15 K, m1 = 1.782
  speed of sound: 1238.7 ± 1.1 m/s
  mass density: 843.35 ± 0.16 kg/m3
[1]; 323.15 K, m1 = 1.95
  speed of sound: 1247 ± 1.1 m/s
  mass density: 847.71 ± 0.16 kg/m3
[1]; 323.15 K, m1 = 2.523
  speed of sound: 1273.2 ± 1.2 m/s
  mass density: 861.18 ± 0.18 kg/m3
[1]; 323.15 K, m1 = 3.56
  speed of sound: 1312.5 ± 1.3 m/s
  mass density: 880.92 ± 0.22 kg/m3
[2]; m1 = 0.0525
  osmotic coefficient: 0.893 ± 0.013
[2]; m1 = 0.0792
  osmotic coefficient: 0.826 ± 0.014
[2]; m1 = 0.0995
  osmotic coefficient: 0.811 ± 0.014
[2]; m1 = 0.2159
  osmotic coefficient: 0.76 ± 0.015
[2]; m1 = 0.3148
  osmotic coefficient: 0.715 ± 0.016
[2]; m1 = 0.4003
  osmotic coefficient: 0.687 ± 0.016
[2]; m1 = 0.5143
  osmotic coefficient: 0.653 ± 0.017
[2]; m1 = 0.8478
  osmotic coefficient: 0.592 ± 0.019
[2]; m1 = 1.241
  osmotic coefficient: 0.556 ± 0.02
[2]; m1 = 1.639
  osmotic coefficient: 0.538 ± 0.02
[2]; m1 = 2.038
  osmotic coefficient: 0.524 ± 0.021
[2]; m1 = 2.439
  osmotic coefficient: 0.517 ± 0.021
[2]; m1 = 2.842
  osmotic coefficient: 0.502 ± 0.021
[2]; m1 = 3.307
  osmotic coefficient: 0.492 ± 0.022
